Reference: ChEMBL document CHEMBL2040778, “The binding of C5-alkynyl and alkylfurano[2,3-d]pyrimidine glucopyranonucleosides to glycogen phosphorylase b: synthesis, biochemical and biological assessment” (Eur J Med Chem, 2012)
pIC50, pKi: −log10 of the molar value.

Assays:
[1] = molecular target: T1, Glycogen phosphorylase, muscle form (Oryctolagus cuniculus, UniProt P00489); assay: Competitive inhibition of rabbit skeletal muscle glycogen phosphorylase b using Glc-1-P as substrate; set-up: species or system Muscle tissue
T1 sequence (P00489 whole entry): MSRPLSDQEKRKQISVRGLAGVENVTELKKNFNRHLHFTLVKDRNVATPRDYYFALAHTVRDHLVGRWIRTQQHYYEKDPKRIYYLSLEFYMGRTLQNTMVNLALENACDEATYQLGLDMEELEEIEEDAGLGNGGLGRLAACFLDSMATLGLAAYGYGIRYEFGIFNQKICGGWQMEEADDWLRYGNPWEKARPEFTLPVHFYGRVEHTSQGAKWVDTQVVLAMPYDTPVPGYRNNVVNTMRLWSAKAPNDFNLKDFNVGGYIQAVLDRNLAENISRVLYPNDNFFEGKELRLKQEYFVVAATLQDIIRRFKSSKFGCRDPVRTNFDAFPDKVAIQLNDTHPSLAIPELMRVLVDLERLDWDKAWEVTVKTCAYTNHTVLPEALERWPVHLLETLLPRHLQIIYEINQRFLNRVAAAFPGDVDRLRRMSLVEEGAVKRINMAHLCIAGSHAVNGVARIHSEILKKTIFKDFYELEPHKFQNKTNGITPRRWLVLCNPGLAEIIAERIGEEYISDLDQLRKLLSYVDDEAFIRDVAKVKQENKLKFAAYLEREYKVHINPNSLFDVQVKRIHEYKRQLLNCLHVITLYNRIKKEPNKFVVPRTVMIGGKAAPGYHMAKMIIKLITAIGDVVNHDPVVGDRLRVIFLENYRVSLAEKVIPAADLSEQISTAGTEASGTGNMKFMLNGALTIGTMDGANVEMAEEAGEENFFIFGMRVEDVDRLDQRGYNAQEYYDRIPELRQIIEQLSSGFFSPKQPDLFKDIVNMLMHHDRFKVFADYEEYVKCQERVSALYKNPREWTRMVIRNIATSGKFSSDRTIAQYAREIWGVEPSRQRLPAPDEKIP

[2] = molecular target: Glycogen phosphorylase, muscle form, Oryctolagus cuniculus (UniProt P00489); assay: Inhibition of glycogen phosphorylase b
HepG2 [3] = assay: Cytotoxicity against human HepG2 cells up to 150 uM after 6 hrs by MTT assay; type: cell-based; settings: hepg2, 6 h
[4] = molecular target: T2, Glycogen phosphorylase, muscle form (Homo sapiens, UniProt P11217); assay: Inhibition of glycogen phosphorylase b in human HepG2 cells after 3 hrs; type: cell-based
T2 sequence (P11217 whole entry): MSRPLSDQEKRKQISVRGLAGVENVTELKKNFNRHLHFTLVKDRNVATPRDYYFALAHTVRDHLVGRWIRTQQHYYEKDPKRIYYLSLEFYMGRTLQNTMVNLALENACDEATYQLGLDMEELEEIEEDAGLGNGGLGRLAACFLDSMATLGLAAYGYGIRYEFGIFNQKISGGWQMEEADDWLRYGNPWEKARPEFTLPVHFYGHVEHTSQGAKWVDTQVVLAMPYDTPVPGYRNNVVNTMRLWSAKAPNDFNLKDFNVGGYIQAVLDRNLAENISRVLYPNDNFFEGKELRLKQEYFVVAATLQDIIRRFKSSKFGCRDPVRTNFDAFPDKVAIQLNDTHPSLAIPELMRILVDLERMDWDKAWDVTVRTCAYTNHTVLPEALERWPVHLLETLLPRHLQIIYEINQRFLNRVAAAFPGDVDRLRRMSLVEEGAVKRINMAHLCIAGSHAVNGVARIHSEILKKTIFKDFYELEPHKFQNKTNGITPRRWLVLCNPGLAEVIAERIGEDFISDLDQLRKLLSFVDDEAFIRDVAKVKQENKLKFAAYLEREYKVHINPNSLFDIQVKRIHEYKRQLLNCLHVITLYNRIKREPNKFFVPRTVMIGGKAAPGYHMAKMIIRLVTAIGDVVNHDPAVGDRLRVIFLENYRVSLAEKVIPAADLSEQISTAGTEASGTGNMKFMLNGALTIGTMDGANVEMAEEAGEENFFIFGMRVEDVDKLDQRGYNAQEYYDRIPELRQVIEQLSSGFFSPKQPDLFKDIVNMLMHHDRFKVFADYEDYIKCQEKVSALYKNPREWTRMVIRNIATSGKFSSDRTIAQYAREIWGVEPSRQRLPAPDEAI

HepG2 [5] = assay: Cytotoxicity against human HepG2 cells assessed as decrease in viability up to 500 uM after 6 hrs by MTT assay relative to control; type: cell-based; settings: hepg2, 6 h

SMILES	pKi [1]	pKi [2]	other results
O=c1[nH]c(=O)n([C@@H]2O[C@H](CO)[C@@H](O)[C@H](O)[C@H]2O)cc1Cl	5.99	5.99	–
CCCCCC#Cc1cn([C@@H]2O[C@H](CO)[C@@H](O)[C@H](O)[C@H]2O)c(=O)[nH]c1=O	–	–	pIC50 [1]: 2.21
O=c1[nH]c(=O)n([C@@H]2O[C@H](CO)[C@@H](O)[C@H](O)[C@H]2O)cc1I	–	5.71	–
CCCCCc1cc2cn([C@@H]3O[C@H](CO)[C@@H](O)[C@H](O)[C@H]3O)c(=O)nc2o1	4.48	–	–
O=c1[nH]c(=O)n([C@@H]2O[C@H](CO)[C@@H](O)[C@H](O)[C@H]2O)cc1Br	–	5.49	–
C#Cc1cn([C@@H]2O[C@H](CO)[C@@H](O)[C@H](O)[C@H]2O)c(=O)[nH]c1=O	5.33	–	Activity (HepG2 [3]): Non-toxic; pIC50 [4]: 3.54; Activity (HepG2 [5]): 10%
CCCC#Cc1cn([C@@H]2O[C@H](CO)[C@@H](O)[C@H](O)[C@H]2O)c(=O)[nH]c1=O	3.52	–	–
CCCc1cc2cn([C@@H]3O[C@H](CO)[C@@H](O)[C@H](O)[C@H]3O)c(=O)nc2o1	4.49	–	–
